Measurements taken from US20060235222A1, “Indole-derivative modulators of steroid hormone nuclear receptors” (ELI LILLY AND COMPANY, priority 2003, published 2006).

What was measured:
glucocorticoid receptor = target: T1, glucocorticoid receptor (Homo sapiens, UniProt P04150); assay: Glucocorticoid Receptor Binding Assay (Method 1), [3H]-dexamethasone competition, A549 cell extract; settings: 1.86 nM [3H]-dexamethasone, read-out: GR Ki (nM) Method 1
T1 construct: containing 50-200 ug of A549 cell extract and 1.86 nM; host or cells: A549 human lung epithelial cells
T1 sequence (P04150 1-777): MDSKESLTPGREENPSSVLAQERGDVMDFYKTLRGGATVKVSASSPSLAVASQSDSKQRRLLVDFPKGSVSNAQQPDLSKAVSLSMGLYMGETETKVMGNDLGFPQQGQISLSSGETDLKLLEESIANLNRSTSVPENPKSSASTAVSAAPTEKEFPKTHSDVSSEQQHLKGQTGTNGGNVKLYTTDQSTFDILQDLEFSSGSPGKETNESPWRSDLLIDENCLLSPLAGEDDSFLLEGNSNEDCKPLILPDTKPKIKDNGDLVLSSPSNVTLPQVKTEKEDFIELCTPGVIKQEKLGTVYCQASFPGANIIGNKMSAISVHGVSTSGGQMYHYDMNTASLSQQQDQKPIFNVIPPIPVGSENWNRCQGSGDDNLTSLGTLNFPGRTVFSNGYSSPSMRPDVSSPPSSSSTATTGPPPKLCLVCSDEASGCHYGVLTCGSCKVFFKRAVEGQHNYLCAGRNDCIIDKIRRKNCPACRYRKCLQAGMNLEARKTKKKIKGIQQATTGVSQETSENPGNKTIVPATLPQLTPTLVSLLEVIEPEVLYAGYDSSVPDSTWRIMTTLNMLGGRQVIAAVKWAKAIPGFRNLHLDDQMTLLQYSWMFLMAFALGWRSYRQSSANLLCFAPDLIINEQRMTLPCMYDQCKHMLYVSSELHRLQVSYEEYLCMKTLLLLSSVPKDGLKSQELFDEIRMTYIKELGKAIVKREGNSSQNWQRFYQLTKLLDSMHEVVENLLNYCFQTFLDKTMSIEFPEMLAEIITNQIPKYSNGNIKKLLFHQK
How it was run: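 Receptor source: sonicated extract of human A549 lung epithelial cells in glycerol/Tris-HCl pH 7.2 buffer with sodium molybdate. [3H]-dexamethasone competition run 16 h at 4 °C; unbound radioligand stripped with dextran-coated charcoal (8 min, RT) and receptor-bound radioactivity quantified by scintillation counting.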

human MR = target: T2, human MR (Homo sapiens, UniProt P08235); assay: Mineralocorticoid Receptor Binding Assay (Method 1), [3H]-aldosterone competition; settings: 0.5 nM [3H]-aldosterone, human MR expressed in Sf9 cells
T2 construct: The full length human MR gene is cloned from a human kidney or human brain cDNA library; inferred from own knowledge of the pAcHLT vector (N); made in house; host or cells: Sf9 insect cells (baculovirus)
T2 sequence (P08235 1-984): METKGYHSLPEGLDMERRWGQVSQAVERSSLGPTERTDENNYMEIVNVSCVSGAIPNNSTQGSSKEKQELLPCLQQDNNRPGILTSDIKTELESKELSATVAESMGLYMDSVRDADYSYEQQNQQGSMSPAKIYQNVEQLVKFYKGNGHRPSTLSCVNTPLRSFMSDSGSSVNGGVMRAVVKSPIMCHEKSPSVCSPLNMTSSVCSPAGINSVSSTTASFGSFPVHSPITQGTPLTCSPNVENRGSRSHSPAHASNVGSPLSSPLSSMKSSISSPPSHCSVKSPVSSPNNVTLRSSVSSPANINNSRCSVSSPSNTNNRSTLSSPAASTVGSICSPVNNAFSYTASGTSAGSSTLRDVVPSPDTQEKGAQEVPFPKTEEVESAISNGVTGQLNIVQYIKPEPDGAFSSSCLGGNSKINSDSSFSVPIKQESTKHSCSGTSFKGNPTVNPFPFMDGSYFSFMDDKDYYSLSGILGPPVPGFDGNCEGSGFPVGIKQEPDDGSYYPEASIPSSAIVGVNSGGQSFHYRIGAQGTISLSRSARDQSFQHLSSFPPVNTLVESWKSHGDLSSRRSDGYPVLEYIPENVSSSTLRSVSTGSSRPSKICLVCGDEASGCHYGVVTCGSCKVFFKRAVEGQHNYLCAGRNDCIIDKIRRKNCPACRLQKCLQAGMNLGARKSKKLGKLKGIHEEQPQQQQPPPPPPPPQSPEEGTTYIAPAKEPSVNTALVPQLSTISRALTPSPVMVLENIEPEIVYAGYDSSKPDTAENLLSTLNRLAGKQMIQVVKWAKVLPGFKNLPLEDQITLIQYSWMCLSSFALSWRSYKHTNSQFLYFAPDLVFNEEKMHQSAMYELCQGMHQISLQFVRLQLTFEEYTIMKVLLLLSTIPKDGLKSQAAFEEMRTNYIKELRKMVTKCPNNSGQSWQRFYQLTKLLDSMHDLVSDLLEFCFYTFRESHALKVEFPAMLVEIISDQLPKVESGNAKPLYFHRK
How it was run: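 Full-length human MR expressed in Sf9 cells via baculovirus; lysate supernatant (about 20-25 μg protein) incubated with 0.5 nM [3H]-aldosterone and test compound for about 16 h at 4° C. Buffer was Tris/molybdate/phosphate/pyrophosphate with 10% glycerol, pH 7.5; filter-bound complex counted by scintillation.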

Row | Ki (glucocorticoid receptor) [nM] | Ki (human MR) [nM] | SMILES
1 | < 500 | < 500 | CC(C)(c1ccc2ncccc2c1)c1c[nH]c2c(NS(C)(=O)=O)cccc12 [Example 47, N-[3-(1-Methyl-1-quinolin-6-yl-ethyl)-1H-indol-7-yl]-methanesulfonamide]
2 | < 500 | < 500 | CCCC(C)(c1ccc(OC)cc1)c1c[nH]c2c(N)cccc12 (stereo not shown) [Example 50, 3-[1-(4-Methoxy-phenyl)-1-methyl-butyl]-1H-indol-7-ylamine]
3 | < 10000 | < 1000 | O=C(O)Cn1cc(C(c2ccccc2)(c2ccccc2)c2ccccc2)c2ccccc21 [Example 51, (3-Trityl-indol-1-yl)-acetic acid]
4 | < 10000 | < 10000 | O=C(O)CCn1cc(C(c2ccccc2)(c2ccccc2)c2ccccc2)c2ccccc21 [Example 52, 3-(3-Trityl-indol-1-yl)-propionic acid]
5 | < 500 | < 500 | CCC(CC)(c1ccc(C)cc1)c1c[nH]c2c(NS(C)(=O)=O)cccc12 [Example 54, N-[3-(1-Ethyl-1-p-tolyl-propyl)-1H-indol-7-yl]-methanesulfonamide]
6 | < 500 | < 500 | COc1ccc(C(C)(C)c2c[nH]c3c(NS(C)(=O)=O)cccc23)cc1 [Example 55, N-{3-[1-(4-Methoxy-phenyl)-1-methyl-ethyl]-1H-indol-7-yl}-methanesulfonamide]
7 | < 500 | < 500 | CCC(CC)(c1ccc(Cl)cc1)c1c[nH]c2c(NS(C)(=O)=O)cccc12 [Example 56, N-{3-[1-(4-Chloro-phenyl)-1-ethyl-propyl]-1H-indol-7-yl}-methanesulfonamide]
8 | < 500 | < 500 | CCC(CC)(c1ccc(C)cc1F)c1c[nH]c2c(NS(C)(=O)=O)cccc12 [Example 57, N-{3-[1-Ethyl-1-(2-fluoro-4-methyl-phenyl)-propyl]-1H-indol-7-yl}-methanesulfonamide]
9 | < 500 | < 500 | CCC(CC)(c1ccc(C)c(C)c1)c1c[nH]c2c(NS(C)(=O)=O)cccc12 [Example 58, N-{3-[1-(3,4-Dimethyl-phenyl)-1-ethyl-propyl]-1H-indol-7-yl}-methanesulfonamide]
10 | < 500 | < 500 | CCC(CC)(c1ccc(C)cc1C)c1c[nH]c2c(NS(C)(=O)=O)cccc12 [Example 60, N-{3-[1-(2,4-Dimethyl-phenyl)-1-ethyl-propyl]-1H-indol-7-yl}-methanesulfonamide]
11 | < 500 | < 500 | CCC(CC)(c1ccccc1)c1c[nH]c2c(NS(C)(=O)=O)cccc12 [Example 61, N-[3-(1-Ethyl-1-phenyl-propyl)-1H-indol-7-yl]-methanesulfonamide]
12 | < 500 | < 500 | CCC(CC)(c1ccc(C(F)(F)F)cc1)c1c[nH]c2c(NS(C)(=O)=O)cccc12 [Example 63, N-{3-[1-Ethyl-1-(4-trifluoromethyl-phenyl)-propyl]-1H-indol-7-yl}-methanesulfonamide]
13 | < 500 | < 500 | CCC(CC)(c1ccc(F)c(F)c1)c1c[nH]c2c(NS(C)(=O)=O)cccc12 [Example 64, N-{3-[1-(3,4-Difluoro-phenyl)-1-ethyl-propyl]-1H-indol-7-yl}-methanesulfonamide]
14 | < 500 | < 500 | CCC(C)(c1ccc(C)cc1)c1c[nH]c2c(NS(C)(=O)=O)cccc12 (stereo not shown) [Example 65, N-[3-(1-Methyl-1-p-tolyl-propyl)-1H-indol-7-yl]-methanesulfonamide]
15 | < 500 | < 500 | CCc1ccc(C(CC)(CC)c2c[nH]c3c(NS(C)(=O)=O)cccc23)cc1 [Example 66, N-{3-[1-Ethyl-1-(4-ethyl-phenyl)-propyl]-1H-indol-7-yl}-methanesulfonamide]
16 | < 500 | < 500 | CCC(CC)(c1ccccc1C)c1c[nH]c2c(NS(C)(=O)=O)cccc12 [Example 67, N-[3-(1-Ethyl-1-o-tolyl-propyl)-1H-indol-7-yl]-methanesulfonamide]
17 | < 500 | < 500 | CCC(CC)(c1ccccc1F)c1c[nH]c2c(NS(C)(=O)=O)cccc12 [Example 68, N-{3-[1-Ethyl-1-(2-fluoro-phenyl)-propyl]-1H-indol-7-yl}-methanesulfonamide]
18 | < 500 | < 500 | CCCC(CCC)(c1ccc(OC)cc1)c1c[nH]c2c(NS(C)(=O)=O)cccc12 [Example 69, N-{3-[1-(4-Methoxy-phenyl)-1-propyl-butyl]-1H-indol-7-yl}-methanesulfonamide]
19 | < 500 | < 500 | CCCC(C)(c1ccccc1)c1c[nH]c2c(NS(C)(=O)=O)cccc12 (stereo not shown) [Example 70, N-[3-(1-Methyl-1-phenyl-butyl)-1H-indol-7-yl]-methanesulfonamide]
20 | < 500 | < 500 | CCC(CC)(c1cccc(C)c1)c1c[nH]c2c(NS(C)(=O)=O)cccc12 [Example 71, N-[3-(1-Ethyl-1-m-tolyl-propyl)-1H-indol-7-yl]-methanesulfonamide]
21 | < 500 | < 500 | CCC(CC)(c1cccc(F)c1)c1c[nH]c2c(NS(C)(=O)=O)cccc12 [Example 72, N-{3-[1′-Ethyl-1-(3-fluoro-phenyl)-propyl]-1H-indol-7-yl}-methanesulfonamide]
22 | < 500 | < 500 | CCC(C)(c1ccc(F)cc1)c1c[nH]c2c(NS(C)(=O)=O)cccc12 (stereo not shown) [Example 73, N-{3-[1-(4-Fluoro-phenyl)-1-methyl-propyl]-1H-indol-7-yl}-methanesulfonamide]
23 | < 500 | < 500 | CCC(CC)(c1ccc(F)cc1)c1c[nH]c2c([N+](=O)[O-])cccc12 [Example 75, 3-[1-Ethyl-1-(4-fluoro-phenyl)-propyl]-7-nitro-1H-indole]
24 | < 500 | < 500 | CC(C)(c1ccc(F)cc1)c1c[nH]c2c(NS(C)(=O)=O)cccc12 [Example 76, N-{3-[1-(4-Fluoro-phenyl)-1-methyl-ethyl]-1H-indol-7-yl}-methanesulfonamide]
25 | < 500 | < 500 | CC(C)(c1ccccc1)c1c[nH]c2c(NS(C)(=O)=O)cccc12 [Example 78, N-[3-(1-Methyl-1-phenyl-ethyl)-1H-indol-7-yl]-methanesulfonamide]
26 | < 1000 | < 500 | CCC(CC)(c1ccc(F)cc1)c1c[nH]c2c(N)cccc12 [Example 79, 3-[1-Ethyl-1-(4-fluoro-phenyl)-propyl]-1H-indol-7-ylamine]
